# Measured values published in US20260103485A1, “COMPOUND BASED ON OXIDATIVE STRESS AND ANTI-AMYLOID AGGREGATION MECHANISM, PREPARATION METHOD THEREFOR AND USE THEREOF” (SHENZHEN RAYTONE PHARMACEUTICAL CO., LTD, priority 2022, published 2026).
# “Also recorded” adds a separate entry of the source.
# Key:
# [1] = tested on: sodium selenite-induced New Zealand rabbit cataract model; assay: Pharmacodynamic study on sodium selenite-induced New Zealand rabbit cataract model (slit lamp lens opacity grading); assay type: in vivo; conditions: 1.5% (w/w) eye drops; for Number of lenses with lens opacity grade III: Grade III: translucent lens nucleus; for Number of lenses with lens opacity grade IV: Grade IV: opacity of lens nucleus not involving cortex; for Effect compared with the core fragment compound c (Gc) group / Effect compared with the core fragment compound d (Gd) group / Effect compared with the model group (MG): chi-square test, p<0.05; for Therapeutic effect on the sodium selenite-induced cataract model: conclusion; for Number of lenses with lens opacity grade I: Grade I: vacuoles in periphery or anterior cortex of lens; for Number of lenses with lens opacity grade II: Grade II: slightly increased density of lens nucleus
# Experimental: Neonatal New Zealand rabbits were P7 days old in ordinary grade, and 5 baby rabbits per litter were breastfed with one mother rabbit.
# The young rabbits were randomly divided into 6 groups with 5 rabbits in each group. • 1) Normal control group (CG): Normal feeding. • 2) Disease model group (MG): At day P10, young rabbits were injected subcutaneously with sodium selenite solution (in normal saline) at 20 μmol/kg body weight. After day P15, normal saline eye drops were dripped into the left eye 3 times a day for 30 consecutive days. • 3) Compound 1 group (group 1, G1): At day P10, young rabbits were injected subcutaneously with sodium selenite solution (in normal saline) at 20 μmol/kg body weight. After day P15, 1.5% (w/w) compound 1 eye drops were dripped into the left eye 3 times a day for 30 consecutive days. • 4) Compound 2 group (group 2, G2): At day P10, young rabbits were injected subcutaneously with sodium selenite solution (in normal saline) at 20 μmol/kg body weight of. After day P15, 1.5% (w/w) compound 2 eye drops were dripped into the left eye 3 times a day for 30 consecutive days. • 5) Compound c group (group c, Gc): At day P10, young rabbits were injected subcutaneously with sodium selenite solution (in normal saline) at 20 μmol/kg body weight. After day P15, 1.5% (w/w) compound c eye drops were dripped into the left eye 3 times a day for 30 consecutive days. • 6) 3,3′-dithiodipropionic acid group (group d, Gd): At day P10, young rabbits were injected subcutaneously with sodium selenite solution (in normal saline) at 20 μmol/kg body weight. After day P15, 1.5% (w/w) 3,3′-dithiodipropionic acid eye drops were dripped into the left eye 3 times a day for 30 consecutive days.
# Slit lamp observation: Slit lamp observation was performed on each group of sodium selenite-induced neonatal New Zealand rabbits before the administration, and 7 days, 14 days, and 30 days after the administration respectively, and the degree of lens opacity was graded to determine the therapeutic effect. Lens opacity grading standard [Hiraoka T, Clark J I. Inhibition of lens opacification during the early stages of cataract formation[J].
# [2] = tested on: mice presbyopia model; assay: Pharmacodynamic study on mice presbyopia model (lens thickness deformation under fixed pressure); assay type: in vivo, Mice (C57BL/6J); conditions: 1.5% (w/w) eye drops; for Lens thickness (deformation): 8 months old C57BL/6J mice, left eye, 3 times a day, 45 consecutive days, micrometer screw after fixed pressure, 5 lenses; for Therapeutic effect on elastic recovery of aged mice: conclusion, 45 days
# Description: Mice (8 months old, C57BL/6J), normal grade.
# The mice were randomly divided into 4 groups with 5 mice in each group. • 1) Model group (MG): normal saline eye drops were dripped into the left eye for 45 consecutive days, 3 times a day. • 2) Compound 1 Group (group 1, G1): 1.5% (w/w) compound 1 eye drops were dripped into the left eye for 45 consecutive days, 3 times a day. • 3) Compound 2 Group (group 2, G2): 1.5% (w/w) compound 2 eye drops were dripped into the left eye for 45 consecutive days, 3 times a day. • 4) 3,3′-dithiodipropionic acid group (group d, Gd): 1.5% (w/w) 3,3′-dithiodipropionic acid eye drops were dripped into the left eye for 45 consecutive days, 3 times a day.
# Measurement of lens thickness deformation: After 45 consecutive days of eye dripping, mice were euthanized with carbon dioxide and flushed with saline. Lens thickness was measured using a micrometer screw after applying a fixed pressure.
# [3] = of 5 lenses, left eye, 3 times a day, 30 consecutive days
SMILES,"Number of lenses with lens opacity grade III [1, 3]","Number of lenses with lens opacity grade IV [1, 3]","Number of lenses with lens opacity grade V ([1]; of 5 lenses, left eye, 3 times a day, 30 consecutive days, Grade V: opacity of lens nucleus and perinuclear cortex)","Number of lenses with lens opacity grade VI ([1]; of 5 lenses, left eye, 3 times a day, 30 consecutive days, Grade VI: complete opacity of lens)",Lens thickness (deformation) [2],Effect compared with the core fragment compound c (Gc) group [1],Effect compared with the core fragment compound d (Gd) group [1],Effect compared with the model group (MG) [1],Therapeutic effect on the sodium selenite-induced cataract model [1],"Number of lenses with lens opacity grade I [1, 3]","Number of lenses with lens opacity grade II [1, 3]",Therapeutic effect on elastic recovery of aged mice [2],Therapeutic effect on elastic recovery of aged mice ([2]; listed as G1)
"O=C(O)CCSSCCC(=O)O [3,3′-dithiodipropionic acid, reference compound]",1,2,1,1,1.55 ± 0.01,–,–,–,–,–,–,–,–
C[C@H](CCCC(C)(C)O)C1CC[C@@]2(C)C3=C(CC[C@]12C)[C@@]1(C)CC[C@H](OC(=O)CCSSCCC(=O)O)C(C)(C)[C@@H]1CC3 (stereo partly drawn) [Compound 1],1,1,–,–,1.42 ± 0.03,significantly superior,significantly superior,significantly superior,significant therapeutic effects,1,2,significant therapeutic effects,most significant effect
C[C@H](CCCC(C)(C)OC(=O)CCSSCCC(=O)O)[C@H]1CC[C@@]2(C)C3=C(CC[C@]12C)[C@@]1(C)CC[C@H](OC(=O)CCSSCCC(=O)O)C(C)(C)[C@@H]1CC3 [Compound 2],1,–,–,–,1.51 ± 0.02,significantly superior,significantly superior,significantly superior,significant therapeutic effects; also recorded: best therapeutic effect,3,1,significant therapeutic effects,–
"C[C@H](CCCC(C)(C)O)[C@H]1CC[C@@]2(C)C3=C(CC[C@]12C)[C@@]1(C)CC[C@H](O)C(C)(C)[C@@H]1CC3 [Compound c, reference compound]",3,–,–,–,–,–,–,–,–,–,2,–,–
